# Results reported in ChEMBL document CHEMBL4840369, “Structure-based screening combined with computational and biochemical analyses identified the inhibitor targeting the binding of DNA Ligase 1 to UHRF1” (Bioorg Med Chem, 2021).
# Calls of active or inactive are those of the source. The rule behind the calls is not given here.
# Columns and labels:
# [1] = biological target: T1, E3 ubiquitin-protein ligase UHRF1 (Homo sapiens) (UniProt Q96T88); assay: Binding affinity to UHRF1 TTD (unknown origin) assessed as increase in thermal stability by measuring change in melting temperature by SYPRO orange dye based fluorescence assay
# T1 sequence (whole entry): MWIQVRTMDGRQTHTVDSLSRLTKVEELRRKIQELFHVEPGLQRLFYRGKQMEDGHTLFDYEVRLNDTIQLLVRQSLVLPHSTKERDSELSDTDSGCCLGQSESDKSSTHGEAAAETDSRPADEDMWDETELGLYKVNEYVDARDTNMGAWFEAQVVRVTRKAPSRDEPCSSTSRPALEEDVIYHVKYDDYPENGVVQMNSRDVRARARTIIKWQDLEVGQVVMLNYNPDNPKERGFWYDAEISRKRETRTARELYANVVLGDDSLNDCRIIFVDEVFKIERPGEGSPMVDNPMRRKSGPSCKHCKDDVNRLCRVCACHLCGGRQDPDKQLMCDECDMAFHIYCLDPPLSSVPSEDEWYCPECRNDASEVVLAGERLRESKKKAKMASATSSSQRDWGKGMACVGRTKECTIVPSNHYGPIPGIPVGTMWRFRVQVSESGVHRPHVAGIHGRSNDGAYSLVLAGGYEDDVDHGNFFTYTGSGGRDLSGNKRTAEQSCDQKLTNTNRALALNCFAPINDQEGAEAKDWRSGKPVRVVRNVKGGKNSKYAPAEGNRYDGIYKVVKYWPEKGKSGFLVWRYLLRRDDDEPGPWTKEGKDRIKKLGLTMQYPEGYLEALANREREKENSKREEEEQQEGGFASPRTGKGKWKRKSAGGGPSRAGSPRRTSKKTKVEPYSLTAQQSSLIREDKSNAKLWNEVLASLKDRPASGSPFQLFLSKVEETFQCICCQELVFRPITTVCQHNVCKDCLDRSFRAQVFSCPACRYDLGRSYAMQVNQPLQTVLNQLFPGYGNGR
# [2] = biological target: T2, E3 ubiquitin-protein ligase UHRF1 (Homo sapiens, UniProt Q96T88); assay: Binding affinity to UHRF1 TTD (unknown origin) assessed as dissociation constant by ITC analysis
# T2 sequence (Q96T88 whole entry): T1 sequence (whole entry)
# [3] = biological target: T1, E3 ubiquitin-protein ligase UHRF1 (Homo sapiens); assay: Binding affinity to UHRF1 TTD (unknown origin) assessed as change in enthalpy by ITC analysis
# [4] = biological target: E3 ubiquitin-protein ligase UHRF1 (Homo sapiens, UniProt Q96T88, Y188A/Y191A); assay: Binding affinity to UHRF1 Y188A/Y191A double mutant (unknown origin) assessed as dissociation constant by ITC analysis
# [5] = biological target: E3 ubiquitin-protein ligase UHRF1 (Homo sapiens, UniProt Q96T88); assay: Binding affinity to UHRF1 TTD variant loop (unknown origin) assessed as dissociation constant by ITC analysis
# [6] = biological target: T1, E3 ubiquitin-protein ligase UHRF1 (Homo sapiens); assay: Displacement of FAM-labeled H3K9me3 from UHRF1 TTD(unknown origin) by fluorescence polarization assay
# [7] = biological target: T1, E3 ubiquitin-protein ligase UHRF1 (Homo sapiens); assay: Displacement of FAM-labeled LIG1K126me3 from UHRF1 TTD(unknown origin) by fluorescence polarization assay
# [8] = biological target: T3, E3 ubiquitin-protein ligase UHRF1 (Xenopus laevis) (UniProt B6CHA3); assay: Inhibition of UHRF1 TTD binding with LIG1K126me3 in Xenopus laevis eggs incubated for 1 hr by immunoprecipitation; type: tissue-based; conditions: Egg
# T3 sequence (whole entry): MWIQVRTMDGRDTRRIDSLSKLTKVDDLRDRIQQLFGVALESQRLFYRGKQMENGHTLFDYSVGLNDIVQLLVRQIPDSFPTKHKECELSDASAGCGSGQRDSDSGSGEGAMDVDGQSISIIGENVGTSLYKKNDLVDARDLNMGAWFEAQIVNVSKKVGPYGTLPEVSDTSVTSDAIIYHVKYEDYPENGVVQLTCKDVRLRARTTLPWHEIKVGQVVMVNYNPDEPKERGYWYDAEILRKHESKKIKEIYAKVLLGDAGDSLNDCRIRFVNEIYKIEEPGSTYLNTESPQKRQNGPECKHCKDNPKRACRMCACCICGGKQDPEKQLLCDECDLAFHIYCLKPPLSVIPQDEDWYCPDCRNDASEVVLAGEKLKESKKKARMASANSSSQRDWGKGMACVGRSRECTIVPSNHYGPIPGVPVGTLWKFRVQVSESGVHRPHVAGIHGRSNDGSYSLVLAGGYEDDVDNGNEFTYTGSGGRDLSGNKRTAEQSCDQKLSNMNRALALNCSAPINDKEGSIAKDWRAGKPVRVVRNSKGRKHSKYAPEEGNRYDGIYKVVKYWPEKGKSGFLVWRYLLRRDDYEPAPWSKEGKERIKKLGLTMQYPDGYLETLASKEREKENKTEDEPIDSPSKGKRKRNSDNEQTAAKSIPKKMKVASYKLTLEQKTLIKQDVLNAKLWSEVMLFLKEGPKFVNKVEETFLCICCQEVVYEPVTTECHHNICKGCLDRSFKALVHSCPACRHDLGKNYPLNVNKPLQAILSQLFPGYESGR
# [9] = biological target: T1, E3 ubiquitin-protein ligase UHRF1 (Homo sapiens); assay: Binding affinity to UHRF1 TTD (unknown origin) assessed as compound-protein complex stoichiometry ratio of 1:1 by ITC analysis
# [10] = biological target: E3 ubiquitin-protein ligase UHRF1 (Homo sapiens, UniProt Q96T88, M224A); assay: Binding affinity to UHRF1 M224A mutant (unknown origin) assessed as dissociation constant by ITC analysis
# [11] = biological target: E3 ubiquitin-protein ligase UHRF1 (Homo sapiens, UniProt Q96T88, F278A); assay: Binding affinity to UHRF1 F278A mutant (unknown origin) assessed as dissociation constant by ITC analysis
# [12] = biological target: T1, E3 ubiquitin-protein ligase UHRF1 (Homo sapiens); assay: Binding affinity to UHRF1 TTD (unknown origin) assessed as increase in thermal stability by melting temperature by SYPRO orange dye based fluorescence assay (reference value: 46.5 +/- 0.1 degreeC)
# Sequence of E3 ubiquitin-protein ligase UHRF1 (Homo sapiens, UniProt Q96T88, Y188A/Y191A) (Q96T88 whole entry Y188A/Y191A): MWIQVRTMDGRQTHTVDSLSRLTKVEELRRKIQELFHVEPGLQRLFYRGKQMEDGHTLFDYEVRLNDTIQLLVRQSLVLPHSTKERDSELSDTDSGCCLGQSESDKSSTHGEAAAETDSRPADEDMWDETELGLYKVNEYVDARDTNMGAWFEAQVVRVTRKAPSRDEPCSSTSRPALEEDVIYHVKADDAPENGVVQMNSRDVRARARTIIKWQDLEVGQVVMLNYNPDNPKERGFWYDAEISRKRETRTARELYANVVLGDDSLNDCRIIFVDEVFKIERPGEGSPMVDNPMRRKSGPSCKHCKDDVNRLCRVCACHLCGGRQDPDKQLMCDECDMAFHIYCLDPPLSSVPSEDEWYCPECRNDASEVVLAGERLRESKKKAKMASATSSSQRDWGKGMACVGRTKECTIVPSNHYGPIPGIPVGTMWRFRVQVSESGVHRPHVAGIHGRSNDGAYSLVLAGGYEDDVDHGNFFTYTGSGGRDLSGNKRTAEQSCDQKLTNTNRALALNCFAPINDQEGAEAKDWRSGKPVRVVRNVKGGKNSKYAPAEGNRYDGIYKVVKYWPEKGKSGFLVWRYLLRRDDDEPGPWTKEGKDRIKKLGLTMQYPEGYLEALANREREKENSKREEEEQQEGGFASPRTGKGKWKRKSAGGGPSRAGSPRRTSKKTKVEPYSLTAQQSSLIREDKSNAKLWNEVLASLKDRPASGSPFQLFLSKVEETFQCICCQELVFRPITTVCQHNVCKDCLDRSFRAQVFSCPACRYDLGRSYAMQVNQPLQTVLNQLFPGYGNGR
# Sequence of E3 ubiquitin-protein ligase UHRF1 (Homo sapiens, UniProt Q96T88, M224A) (Q96T88 whole entry M224A): as the sequence (Q96T88 whole entry Y188A/Y191A) above, with A188Y, A191Y, M224A counted along it
# Sequence of E3 ubiquitin-protein ligase UHRF1 (Homo sapiens, UniProt Q96T88, F278A) (Q96T88 whole entry F278A): as the sequence (Q96T88 whole entry Y188A/Y191A) above, with A188Y, A191Y, F278A counted along it
structure (smiles),measurement,setting,value
Cc1cc(C)c(N)cn1,deltaT,[1],3.1 °C
same,Kd,[2],19.3 µM
same,deltaH,[3],-8.5 kcal/mol
same,Kd,[4],32 µM
same,Kd,[5],20.7 µM
same,INH,[6],249 µM
same,INH,[7],806 µM
same,inhibition,[8],Dose-Dependent Effect
same,Activity,[9],Active
same,Kd,[10],> 111 µM
same,Kd,[11],> 183 µM
same,Tm,[12],49.6 °C
